Laboratory results reported in patent US20070203212A1, “METHOD OF TREATING OSTEOARTHRITIS” (WARNER-LAMBERT COMPANY, priority 2002, published 2007).
“Also recorded” adds a separate entry of the source.

Columns and labels:
[1] = test system: prostaglandin-F2a (PGF2a) expression; assay: PGF2a expression from calcium ionophore-stimulated rat basophilic leukemia cells; type: cell-based
[2] = test system: leukotriene B4 (LTB4) expression; assay: LTB4 expression from calcium ionophore-stimulated rat basophilic leukemia cells; type: cell-based
[3] = Blood pressure in normal healthy humans; type: in vivo, human
[4] = test system: experimental osteoarthritis (anterior cruciate ligament section); assay: Experimental osteoarthritis in rabbit (EOA in Rabbit); type: in vivo; settings: 30 or 10 mg/kg/dose three times per day, 8 weeks; 'if these EOA studies were performed'
Protocol: Normal rabbits are anaesthetized and anteromedial incisions of the right knees performed. The anterior cruciate ligaments are visualized and sectioned. The wounds are closed and the animals are housed in individual cages, exercised, and fed ad libitum. Rabbits are given either vehicle (water) or 6-(5-carboxy-5-methyl-hexyloxy)-2,2-dimethyl-hexanoic acid, calcium salt, or a pharmaceutically acceptable salt thereof, (10 rabbits per group). Each group is dosed three times per day with the 6-(5-carboxy-5-methyl-hexyloxy)-2,2-dimethyl-hexanoic acid, calcium salt, or a pharmaceutically acceptable salt thereof, group receiving 30-mg/kg/dose or 10-mg/kg/dose. The rabbits are euthanized 8 weeks after surgery and the proximal end of the tibia and the distal end of the femur are removed from each animal.
The cartilage changes on the femoral condyles and tibial plateaus are graded separately under a dissecting microscope (Stereozoom, Bausch & Lomb, Rochester, N.Y.). […] The surface area changes are measured and expressed in mm^2. […]
Representative specimens of synovial membrane from the medial and lateral knee compartments are dissected from underlying tissues. […] The average score is calculated and considered as a unit for the whole knee. […]
Mean values and SEM are calculated and statistical analysis is done using the Mann-Whitney U-test.

[5] = test system: monosodium iodoacetate (MIA)-induced osteoarthritis; assay: MIA rat model, chronic oral b.i.d. dosing: tibial plateau cartilage erosion analysis; type: in vivo; settings: for Decreased Erosion Size (statistically significant decrease in size of area of joint erosion) / SDCES (Significant Decrease In Cartilage Erosion Severity), Ridit analysis: 28 days; for SDCES (Significant Decrease In Cartilage Erosion Severity), Ridit analysis: calcium salt
Protocol: In a particular experiment, monosodium iodoacetate (“MIA”) (1 mg/joint) was injected through the infrapatellar ligament of the right knee of anesthetized male, Wistar rats. The contralateral control knee was injected with 50 μL of physiologic saline. The change in hind paw weight distribution, as determined by use of an incapacitance tester, between the right (arthritic) and left (contralateral control) knees was utilized as an index of functional limitation in the arthritic knee. Limitations in joint function were determined on Days 7, 14, and 28 following induction of arthritis. Following sacrifice, erosion severity was determined on the tibial plateaus from the arthritic joint. Histological analysis was also conducted on these samples.
The ridit analysis was used to determine differences in overall erosion severity. This parameter takes into account both the erosion grade (0=no erosion, I=erosion extending into the superficial or middle layers, or II=deep layer erosion), and area (small, medium and large, quantified by dividing the area of the largest erosion in each score into thirds) simultaneously.
After administering CI-1027 b.i.d. for 4 weeks, the rats were euthanized by CO2 administration. The soft tissue was removed from the right (arthritic) leg, the joint was disarticulated, and the meniscus was carefully removed to expose the surface of the tibial plateau. The tibia was removed and placed in physiologic saline until erosion analysis was performed. Tibial plateau erosions were analyzed the same day as the sacrifice as follows. Each plateau was dipped in India ink for approximately 30 seconds to help define the erosions, rinsed in saline, and blotted on a paper towel. A stereomicroscope equipped with a digital camera was used to photograph each plateau. The tibial plateaus were photographed and graded separately by two ordinary skilled persons using the following system:
Grade I=erosion extending into the superficial or middle layers;
Grade II=deep layer erosion; no cartilage, sub-chondral bone exposed.
The photographs were transferred to a computer for image analysis using a Zeiss KS 300 Image Analysis System to determine the total erosion area for each grade, expressed in square millimeters (“mm^2”). A RIDIT analysis (see above) was used to determine differences in overall erosion severity. This analysis takes into account both the erosion grade and area (small, medium and large, quantified by dividing the area of the largest erosion in each score into thirds) simultaneously.

[6] = 30 mg/kg PO BID, dose-response experiment

CC(C)(CCCCOCCCCC(C)(C)C(=O)[O-])C(=O)[O-].[Ca+2] [CI-1027, 6-(5-carboxy-5-methyl-hexyloxy)-2,2-dimethyl-hexanoic acid, calcium salt]
inhibition of PGF2a expression [1]: does not inhibit | inhibition of LTB4 expression [2]: does not inhibit | effect on blood pressure [3]: no effect or perhaps even slightly (1-5 mmHg) decreases | lesion size on tibial plateaus / cartilage damage [4]: reduce the size of the lesion on the tibial plateaus | Decreased Erosion Size (statistically significant decrease in size of area of joint erosion) ([5]; 3 mg/kg PO BID): No | SDCES (Significant Decrease In Cartilage Erosion Severity), Ridit analysis ([5]; 3 mg/kg PO BID): statistically significant inhibitory effect; also recorded: Yes^f | Decreased Erosion Size (statistically significant decrease in size of area of joint erosion) ([5]; 10 mg/kg PO BID): Yes^c | SDCES (Significant Decrease In Cartilage Erosion Severity), Ridit analysis ([5]; 10 mg/kg PO BID): significantly decrease cartilage erosion severity; also recorded: statistically significant inhibitory effect; also recorded: Yes^e | decrease in total erosion area (regardless of grade) ([5]; 10 mg/kg PO b.i.d. 28 days, dose-response experiment (FIG. 5), statistically significant): 62.4% | Decreased Erosion Size (statistically significant decrease in size of area of joint erosion) [5, 6]: No | SDCES (Significant Decrease In Cartilage Erosion Severity), Ridit analysis [5, 6]: significantly decrease cartilage erosion severity; also recorded: significantly decreased the degree of structural damage to the cartilage; also recorded: statistically significant inhibitory effect; also recorded: Yes^d | Decreased Erosion Size (statistically significant decrease in size of area of joint erosion) ([5]; 30 mg/kg PO BID, single-dose-level experiment): No | SDCES (Significant Decrease In Cartilage Erosion Severity), Ridit analysis ([5]; 30 mg/kg PO BID, single-dose-level experiment (p = 0.100)): no statistically significant effect and No^g | treated rats with no erosions ([5]; 30 mg/kg PO b.i.d. 28 days, first experiment, N=12): 5 of the 12 | decrease in total erosion area (regardless of grade) ([5]; 30 mg/kg PO b.i.d. 28 days, first experiment, not statistically significant (p=0.179)): 43%
